Source: patent US6461997B1, “Triazole sulfones having herbicidal activity” (Monsanto Technology LLC, priority 1999, dated 2002)

Assays:
LOLMG (annual ryegrass) = assay: Post-emergence herbicidal activity, cool season; format: in vivo, Lolium multiflorum; conditions: abraded plants sprayed at 300, 100, 30 and 10 g/ha; about 14 days after treatment
In short: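 Greenhouse test on sand-abraded seedlings sprayed 9 to 14 days after planting at 300, 100, 30 and 10 g/ha; GR80 from percent inhibition versus controls at approximately 14 days.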

[1] = test system: SORHA (johnsongrass (seedling)); assay: Pre-plant incorporated (PPI) herbicidal activity, warm season; format: in vivo, Sorghum halepense; conditions: for inhibition at 10 g/ha / inhibition at 30 g/ha / inhibition at 100 g/ha / inhibition at 300 g/ha / inhibition at 900 g/ha: Sorghum halepense, read-out: Percent inhibition SORHA; for inhibition at 10 g/ha / inhibition at 30 g/ha / inhibition at 100 g/ha / inhibition at 300 g/ha / inhibition at 900 g/ha / Percent inhibition SORHA: PPI application; for PPI activity GR80, SORHA: pre-plant incorporated, lowest tested rate with 80% or greater inhibition, about 14 days
Description: (§1) In another set of tests, the pre-plant incorporated (PPI) activity of compounds of this invention was evaluated on the same species as for the pre-emergence tests described above. In the PPI tests the following procedure, designed to simulate PPI application, was used.
(§2) A pre-prepared topsoil mixture (described above) was placed in a pot and compacted to a depth of 1.0 to 1.25 cm from the top of the pot. Seeds of each of several monocotyledonous and dicotyledonous annual plant species were placed on top of the soil. A sufficient quantity of soil to cover the seeds and level fill the pot was weighed into an open container. A known amount of the test compound was dissolved or suspended in an organic solvent and applied by spraying to this cover soil. The cover soil was thoroughly mixed to distribute the test compound throughout the cover soil, and was then applied as a cover layer over the seeds. Untreated soil was used as a cover layer for control pots. After treatment the plants were placed in a greenhouse where they received 0.64 cm of overhead irrigation. All subsequent watering consisted of a light overhead mist and/or subirrigation as needed for germination and growth. Tables 9 and 10 below relate to warm season plant species which were placed after pre-emergence treatment in a greenhouse with a 30/21° C. day/night temperature regime. Tables 11 and 12 below relates to cool season plant species placed after pre-emergence treatment in a greenhouse or growth chamber with an 18/13° C. day/night temperature regime. Only the compounds of Examples 1, 6, 8, 11, 13 and 15-20 were included in PPI tests.
(§3) Approximately 14 days after planting and treating, the plants were observed and herbicidal efficacy recorded as percent inhibition by comparison with untreated plants.

POAAN (annual bluegrass) = assay: Pre-plant incorporated (PPI) herbicidal activity, cool season; format: in vivo, Poa annua; conditions: weed, PPI application; for inhibition at 10 g/ha / inhibition at 30 g/ha / inhibition at 100 g/ha / inhibition at 300 g/ha / inhibition at 900 g/ha: Poa annua, read-out: Percent inhibition POAAN
Description: as §1, §2, §3

SETFA (giant foxtail) = assay: Pre-emergence herbicidal activity, warm season; format: in vivo, Setaria faberi; conditions: GR80 = lowest tested rate (300, 100, 30, 10 g/ha) with 80% or greater inhibition; approx. 14 days after treating; 30/21° C.
In short: (§4)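 GR80 values derive from percent inhibition relative to untreated plants, read roughly 14 days after sowing and pre-emergence soil-surface treatment (compound in 50:50 acetone/water; rates typically 10, 30, 100, 300 g/ha). Warm-season weeds grew at 30/21° C day/night, cool-season ones at 18/13° C; an asterisk marks activity without reaching 80% at the highest rate.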

[2] = test system: AEGCY (jointed goatgrass); assay: Pre-plant incorporated (PPI) herbicidal activity, cool season; format: in vivo, Aegilops cylindrica; conditions: for inhibition at 10 g/ha / inhibition at 30 g/ha / inhibition at 100 g/ha / inhibition at 300 g/ha / inhibition at 900 g/ha: Aegilops cylindrica, read-out: Percent inhibition AEGCY; for inhibition at 10 g/ha / inhibition at 30 g/ha / inhibition at 100 g/ha / inhibition at 300 g/ha / inhibition at 900 g/ha / Percent inhibition AEGCY: weed, PPI application; for PPI activity GR80, AEGCY: pre-plant incorporated, lowest tested rate with 80% or greater inhibition, about 14 days
Description: as §1, §2, §3

[3] = test system: AGSST (creeping bentgrass); assay: Pre-emergence herbicidal activity, cool season; format: in vivo, Agrostis stolonifera; conditions: GR80 = lowest tested rate (300, 100, 30, 10 g/ha) with 80% or greater inhibition; approx. 14 days after treating; 18/13° C.
In short: as §4

SMILES	Post-emergence activity GR80, LOLMG (LOLMG (annual ryegrass))	inhibition at 30 g/ha ([1]; 30 g/ha) [%]	inhibition at 100 g/ha ([1]; 100 g/ha) [%]	inhibition at 300 g/ha ([1]; 300 g/ha) [%]	inhibition at 900 g/ha ([1]; 900 g/ha) [%]	PPI activity GR80, SORHA [1] [g/ha]	inhibition at 30 g/ha (POAAN (annual bluegrass); 30 g/ha) [%]	inhibition at 100 g/ha (POAAN (annual bluegrass); 100 g/ha) [%]	inhibition at 300 g/ha (POAAN (annual bluegrass); 300 g/ha) [%]	inhibition at 900 g/ha (POAAN (annual bluegrass); 900 g/ha) [%]	Pre-emergence activity (GR80) SETFA (SETFA (giant foxtail))	inhibition at 30 g/ha ([2]; 30 g/ha) [%]	inhibition at 100 g/ha ([2]; 100 g/ha) [%]	inhibition at 300 g/ha ([2]; 300 g/ha) [%]	inhibition at 900 g/ha ([2]; 900 g/ha) [%]	PPI activity GR80, AEGCY [2]	Pre-emergence activity (GR80) AGSST [3] [g/ha]	Percent inhibition SORHA ([1]; 30 g/ha) [%]	Percent inhibition SORHA ([1]; 100 g/ha) [%]	Percent inhibition SORHA ([1]; 300 g/ha) [%]	other results
C=C(C)CC(F)(F)S(=O)(=O)c1ncn(C(=O)N(CC)CC)n1 [Example 18]	[empty]	100	100	100	100	300	50	65	80	100	100 g/ha	0	0	20	10	* (activity observed, at least at highest rate, but <80% inhibition)	30				inhibition at 10 g/ha ([1]; 10 g/ha): 100%; inhibition at 10 g/ha (POAAN (annual bluegrass); 10 g/ha): 20%; inhibition at 10 g/ha ([2]; 10 g/ha): 0%
CCSC(F)(F)S(=O)(=O)c1ncn(C(=O)N(CC)CC)n1 [Example 8, 1-(N,N-diethylcarbamoyl)-3-[difluoro(ethylthio)methylsulfonyl]-1,2,4-triazole]	[empty]	100	90	100	100	30	100	100	100	100	100 g/ha	0	50	40	20	[empty]	30				
C=C(Br)CC(F)(F)S(=O)(=O)c1ncn(C(=O)N(CC)CC)n1 [Example 19]	[empty]	80	100	100	100	100	0	10	100	100	300 g/ha	0	20	50	20	300 g/ha	30				inhibition at 10 g/ha ([1]; 10 g/ha): 60%; inhibition at 10 g/ha (POAAN (annual bluegrass); 10 g/ha): 0%; inhibition at 10 g/ha ([2]; 10 g/ha): 0%
C=C(CC(F)(F)S(=O)(=O)c1ncn(C(=O)N(CC)CC)n1)C[Si](C)(C)C [Example 20]	[empty]					100					100 g/ha					* (activity observed, at least at highest rate, but <80% inhibition)	300	0	20	80	Percent inhibition SORHA ([1]; 900 g/ha): 80%; Percent inhibition POAAN (POAAN (annual bluegrass); 10 g/ha): 0%; Percent inhibition POAAN (POAAN (annual bluegrass); 30 g/ha): 30%; Percent inhibition POAAN (POAAN (annual bluegrass); 100 g/ha): 60%; Percent inhibition POAAN (POAAN (annual bluegrass); 300 g/ha): 90%; Percent inhibition POAAN (POAAN (annual bluegrass); 900 g/ha): 99%; Percent inhibition AEGCY ([2]; 10 g/ha): 0%; Percent inhibition AEGCY ([2]; 30 g/ha): 0%; Percent inhibition AEGCY ([2]; 100 g/ha): 0%; Percent inhibition AEGCY ([2]; 300 g/ha): 0%; Percent inhibition AEGCY ([2]; 900 g/ha): 0%
CCN(CC)C(=O)n1cnc(S(=O)(=O)C(F)(F)SCCOC)n1 [Example 13]	[empty]					100					* (activity observed, at least at highest rate, but <80% inhibition)					[empty]	100	100	90	100	Percent inhibition SORHA ([1]; 10 g/ha): 30%; Percent inhibition SORHA ([1]; 900 g/ha): 100%; Percent inhibition POAAN (POAAN (annual bluegrass); 10 g/ha): 0%; Percent inhibition POAAN (POAAN (annual bluegrass); 30 g/ha): 50%; Percent inhibition POAAN (POAAN (annual bluegrass); 100 g/ha): 90%; Percent inhibition POAAN (POAAN (annual bluegrass); 300 g/ha): 100%; Percent inhibition POAAN (POAAN (annual bluegrass); 900 g/ha): 95%; Percent inhibition AEGCY ([2]; 10 g/ha): 0%; Percent inhibition AEGCY ([2]; 30 g/ha): 0%; Percent inhibition AEGCY ([2]; 100 g/ha): 0%; Percent inhibition AEGCY ([2]; 300 g/ha): 60%; Percent inhibition AEGCY ([2]; 900 g/ha): 40%
CCN(CC)C(=O)n1cnc(S(=O)(=O)C(F)(F)SCc2ccccc2)n1 [Example 10]	[empty]										100 g/ha						100	0	50	100	Percent inhibition SORHA ([1]; 10 g/ha): 0%; Percent inhibition SORHA ([1]; 900 g/ha): 100%; Percent inhibition POAAN (POAAN (annual bluegrass); 10 g/ha): 0%; Percent inhibition POAAN (POAAN (annual bluegrass); 30 g/ha): 10%; Percent inhibition POAAN (POAAN (annual bluegrass); 100 g/ha): 95%; Percent inhibition POAAN (POAAN (annual bluegrass); 300 g/ha): 100%; Percent inhibition POAAN (POAAN (annual bluegrass); 900 g/ha): 100%; Percent inhibition AEGCY ([2]; 10 g/ha): 0%; Percent inhibition AEGCY ([2]; 30 g/ha): 0%; Percent inhibition AEGCY ([2]; 100 g/ha): 20%; Percent inhibition AEGCY ([2]; 300 g/ha): 30%; Percent inhibition AEGCY ([2]; 900 g/ha): 20%
CCN(CC)C(=O)n1cnc(S(=O)(=O)C(F)(F)SC)n1 [Example 9]	[empty]										100 g/ha						30	100	100	100	Percent inhibition SORHA ([1]; 900 g/ha): 100%; Percent inhibition POAAN (POAAN (annual bluegrass); 30 g/ha): 90%; Percent inhibition POAAN (POAAN (annual bluegrass); 100 g/ha): 100%; Percent inhibition POAAN (POAAN (annual bluegrass); 300 g/ha): 100%; Percent inhibition POAAN (POAAN (annual bluegrass); 900 g/ha): 100%; Percent inhibition AEGCY ([2]; 30 g/ha): 0%; Percent inhibition AEGCY ([2]; 100 g/ha): 20%; Percent inhibition AEGCY ([2]; 300 g/ha): 30%; Percent inhibition AEGCY ([2]; 900 g/ha): 40%
C=CCC(F)(F)S(=O)(=O)c1ncn(C(=O)N(CC)CC)n1 [Example 17, 1-(N,N-diethylcarbamoyl)-3-[(1,1-difluoro-3-butenyl)sulfonyl]-1,2,4-triazole]	[empty]	60	100	100	100	10	60	70	95	100	100 g/ha	0	0	20	40	100 g/ha	100				inhibition at 10 g/ha ([1]; 10 g/ha): 95%; inhibition at 10 g/ha (POAAN (annual bluegrass); 10 g/ha): 10%; inhibition at 10 g/ha ([2]; 10 g/ha): 0%
